Measured values as given in US7935722B2 (Eli Lilly and Company, priority 2005, dated 2011).
Like-named read-outs stand apart in the source and are kept apart here.

Legend:
[1] = target: T1, human androgen receptor (AR) (Homo sapiens, UniProt P10275); test: C2C12 AR/ARE reporter assay; format: cell-based
T1 construct: expressed in transfected cells; host or cells: mouse myoblast C2C12 cells, transiently co-transfected
T1 sequence (P10275 1-920): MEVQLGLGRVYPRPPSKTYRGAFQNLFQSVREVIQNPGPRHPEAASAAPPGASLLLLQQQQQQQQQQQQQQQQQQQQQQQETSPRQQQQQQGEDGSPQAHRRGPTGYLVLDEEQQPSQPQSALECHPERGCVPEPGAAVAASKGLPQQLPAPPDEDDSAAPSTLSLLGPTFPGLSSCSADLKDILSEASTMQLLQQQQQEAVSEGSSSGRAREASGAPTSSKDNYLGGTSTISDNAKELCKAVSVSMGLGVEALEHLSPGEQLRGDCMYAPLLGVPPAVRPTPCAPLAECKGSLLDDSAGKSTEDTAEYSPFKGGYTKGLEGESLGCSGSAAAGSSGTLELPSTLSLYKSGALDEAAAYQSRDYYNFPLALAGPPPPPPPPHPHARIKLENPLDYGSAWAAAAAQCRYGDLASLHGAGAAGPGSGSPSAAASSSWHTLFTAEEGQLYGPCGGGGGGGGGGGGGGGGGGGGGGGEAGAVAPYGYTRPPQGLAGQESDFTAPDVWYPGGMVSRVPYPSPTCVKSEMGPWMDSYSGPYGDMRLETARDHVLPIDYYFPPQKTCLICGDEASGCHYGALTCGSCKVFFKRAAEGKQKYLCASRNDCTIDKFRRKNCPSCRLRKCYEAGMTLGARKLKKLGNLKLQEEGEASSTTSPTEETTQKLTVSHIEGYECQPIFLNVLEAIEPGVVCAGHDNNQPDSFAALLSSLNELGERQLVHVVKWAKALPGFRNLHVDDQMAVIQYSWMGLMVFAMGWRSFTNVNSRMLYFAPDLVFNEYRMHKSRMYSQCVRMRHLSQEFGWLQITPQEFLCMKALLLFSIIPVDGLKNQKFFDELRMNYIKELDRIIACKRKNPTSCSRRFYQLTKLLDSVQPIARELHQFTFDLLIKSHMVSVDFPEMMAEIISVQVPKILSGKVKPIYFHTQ
Method in brief: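 Mouse C2C12 myoblasts co-transfected with AR/ARE reporter were plated in charcoal-stripped serum and treated for 48 h with compound from about 0.01 nM to 10 μM. Luciferase activity gave EC50 by 4-parameter logistic fit. Efficacy is expressed as % of maximal stimulation by 10 nM methyltrienolone.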

[2] = target: T2, human AR (androgen receptor) (Homo sapiens, UniProt P10275); test: Steroid hormone nuclear receptor binding assay, AR binding
T2 construct: expressed in transfected cells; host or cells: 293 cells (293-AR lysate)
T2 sequence (P10275 1-920): T1 sequence (P10275 1-920)
Method in brief: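 Competition binding with lysates of 293 cells overexpressing human AR, [3H]-methyltrienolone tracer, compounds from about 0.01 nM to 10 μM, overnight at 4 °C; non-specific binding set with 500 nM methyltrienolone. Bound tracer counted by scintillation after charcoal-dextran separation; IC50 converted to Ki by Cheng-Prusoff using Kd from saturation binding.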

[3] = C2C12, read-out: C2C12 % Efficacy
[4] = C2C12 AR/ARE reporter assay, average of n trials, read-out: C2C12 % Efficacy
[5] = C2C12 AR/ARE reporter assay, average of n trials, read-out: C2C12 EC50
[6] = average of n trials, read-out: AR binding Ki

| Structure (SMILES) | EC50 [1] [nM] | Emax [1, 3] [%] | Ki [2] [nM] | Emax [1, 4] [%] | EC50 [1, 5] [nM] | Ki [2, 6] [nM] |
| --- | --- | --- | --- | --- | --- | --- |
| CC(C)C(=O)NC1CCc2c(c3cc(C=O)ccc3n2Cc2cccc(F)c2)C1 (stereo not drawn) [Example 197, N-[9-(3-Fluoro-benzyl)-6-formyl-2,3,4,9-tetrahydro-1H-carbazol-3-yl]-isobutyramide] | 26.8 | 147 | 4.2 | – | – | – |
| CC(C)C(=O)NC1CCc2c(c3cc(C(F)F)ccc3n2Cc2cccc(F)c2)C1 (stereo not drawn) [Example 198, N-[6-Difluoromethyl-9-(3-fluoro-benzyl)-2,3,4,9-tetrahydro-1H-carbazol-3-yl]-isobutyramide] | – | – | – | 102 | 11 | 3.2 |
| CC(C)C(=O)NC1CCc2c(c3cc(C#N)ccc3n2Cc2ccccc2[N+](=O)[O-])C1 (stereo not drawn) [Example 108, N-[6-Cyano-9-(2-nitro-benzyl)-2,3,4,9-tetrahydro-1H-carbazol-3-yl]-isobutyramide] | 718 | 58.4 | 57.3 | – | – | – |
| CC(C)C(=O)NC1CCc2c(c3cc(OC(F)(F)F)ccc3n2Cc2cccc(F)c2)C1 (stereo not drawn) [Example 166] | 6.2 | 81.1 | 5.3 | – | – | – |
| CC(C)C(=O)N[C@@H]1CCc2c(c3cc(C#N)ccc3n2Cc2ccccc2N)C1 (single isomer, unassigned) [Example 110, R-N-[9-(2-Amino-benzyl)-6-cyano-2,3,4,9-tetrahydro-1H-carbazol-3-yl]-isobutyramide] | 1.8 | 110 | 4.8 | – | – | – |
| CC(C)C(=O)NC1CCc2c(c3cc(C#N)ccc3n2Cc2cccc(Br)c2)C1 (stereo not drawn) [Example 86] | 36.3 | 93.9 | 2.6 | – | – | – |
| CC(C)C(=O)NC1CCc2c(c3cc(C#N)ccc3n2Cc2ccccc2O)C1 (stereo not drawn) [Example 107, N-[6-Cyano-9-(2-hydroxy-benzyl)-2,3,4,9-tetrahydro-1H-carbazol-3-yl]-isobutyrarmide] | 0.5 | 86.2 | 3.1 | – | – | – |
| CC(C)C(=O)NC1CCc2c(c3c(Cl)c(C#N)ccc3n2Cc2cccc(F)c2)C1 (stereo not drawn) [Example 117, N-[5-Chloro-6-cyano-9-(3-fluoro-benzyl)-2,3,4,9-tetrahydro-1H-carbazol-3-yl]-isobutyramide] | 12 | 76.7 | 4.5 | – | – | – |
| N#Cc1ccc2c(c1)c1c(n2Cc2cccc(F)c2)CCC(NS(=O)(=O)C2CC2)C1 (stereo not drawn) [Example 177, Cyclopropanesulfonic acid[6-cyano-9-(3-fluoro-benzyl)-2,3,4,9-tetrahydro-1H-carbazol-3-yl)-amide] | 102 | 75.2 | 3.8 | – | – | – |
| Cc1nc(Cn2c3c(c4cc(C#N)ccc42)C[C@@H](NC(=O)C(C)C)CC3)cs1 [Example 152, (S)-N-[6-cyano-9-(2-methyl-thiazol-4-ylmethyl)-2,3,4,9-tetrahydro-1H-carbazol-3-yl]-isobutyramide] | 409 | 61.1 | 208 | – | – | – |
| CO/N=C/c1ccc2c(c1)c1c(n2Cc2cccc(F)c2)CC[C@@H](NC(=O)C(C)C)C1 [Example 201, (R)-N-[9-(3-Fluorobenzyl)-6-(methoxyimino-methyl)-2,3,4,9-tetrahydro-1H-carbazol-3-yl]-isobutyramide] | – | – | – | 79.9 | 5 | 2.9 |
| CC(=O)c1ccc2c(c1)c1c(n2Cc2cccc(F)c2)CC[C@@H](NC(=O)C(C)C)C1 [Example 191, (R)-N-[6-Acetyl-9-(3-fluoro-benzyl)-2,3,4,9-tetrahydro-1H-carbazol-3-yl]-isobutyramide] | 1.2 | 91.2 | 3.3 | – | – | – |
| O=C(NC1CCc2c(c3cc(OC(F)(F)F)ccc3n2Cc2cccc(F)n2)C1)C1CC1 (stereo not drawn) [Example 163] | – | – | – | 75.2 | 37.3 | 12.7 |
| COc1cccc(Cn2c3c(c4cc(OC)ccc42)CC(NC(=O)C(C)C)CC3)c1 (stereo not drawn) [Example 73] | 227 | 54.7 | 52.1 | – | – | – |
| CO/N=C/c1ccc2c(c1)c1c(n2Cc2csc(C)n2)CC[C@@H](NC(=O)C(C)C)C1 [Example 212, (R)-N-[6-(Methoxyimino-methyl)-9-(2-methyl-thiazol-4-ylmethyl)-2,3,4,9-tetrahydro-1H-carbazol-3-yl]-isobutyramide] | 7.8 | 90.4 | 16.7 | – | – | – |
| CC(C)C(=O)NC1CCc2c(c3cc(C#N)c(F)cc3n2Cc2cccc(F)c2)C1 (stereo not drawn) [Example 115, N-[6-Cyano-7-fluoro-9-(3-fluoro-benzyl)-2,3,4,9-tetrahydro-1H-carbazol-3-yl]-isobutyramide] | 4.3 | 74.7 | 3.2 | – | – | – |
| CC(C)C(=O)NC1CCc2c(c3cc(-c4cccnc4)ccc3n2Cc2cccc(F)c2)C1 (stereo not drawn) [Example 132] | 5.4 | 83.9 | 7.4 | – | – | – |
| COc1ccc2c(c1)c1c(n2Cc2cccnc2)CCC(NC(=O)C(C)C)C1 (stereo not drawn) [Example 144] | 275 | 41.4 | 737 | – | – | – |
| CC(C)C(=O)NC1CCc2c(c3cc(C#N)ccc3n2Cc2cccc(N)c2)C1 (stereo not drawn) [Example 90, N-[9-(3-Amino-benzyl)-6-cyano-2,3,4,9-tetrahydro-1H-carbazol-3-yl]-isobutyramide] | 123 | 67.6 | 30.5 | – | – | – |
| CC(C)C(=O)NC1CCc2c(c3cc(Br)ccc3n2Cc2cccc(F)c2)C1 (stereo not drawn) [Example 35, N-[6-bromo-9-(3-fluoro-benzyl)-2,3,4,9-tetrahydro-1H-carbazol-3-yl]-isobutyramide] | 2.3 | 74.1 | 2.6 | – | – | – |
| CC(C)C(=O)NC1CCc2c(c3cc(C#N)ccc3n2Cc2cccs2)C1 (stereo not drawn) [Example 158, N-(6-Cyano-9-thiophen-2-ylmethyl-2,3,4,9-tetrahydro-1H-carbazol-3-yl)-isobutyramide] | 4.5 | 124 | 3.1 | – | – | – |
| CC(C)C(=O)NC1CCc2c(c3cc(C#N)ccc3n2Cc2nccs2)C1 (stereo not drawn) [Example 149, N-(6-Cyano-9-thiazol-2-ylmethyl-2,3,4,9-tetrahydro-1H-carbazol-3-yl)-isobutyramide] | – | – | – | 91.4 | 17.6 | 18 |
| CC(C)C(=O)NC1CCc2c(c3cc(Br)cc(F)c3n2Cc2cccc(F)c2)C1 (stereo not drawn) [Example 120, N-[6-Bromo-8-fluoro-9-(3-fluoro-benzyl)-2,3,4,9-tetrahydro-1H-carbazol-3-yl]-isobutyramide] | 51.4 | 101 | 7 | – | – | – |
| CN(C)C(=O)NC1CCc2c(c3cc(Br)ccc3n2Cc2cccc(F)c2)C1 (stereo not drawn) [Example 176, 3-[6-Bromo-9-(3-fluoro-benzyl)-2,3,4,9-tetrahydro-1H-carbazol-3-yl]-1,1-dimethyl-urea] | 46 | 61.5 | 7.8 | – | – | – |
| CC(C)C(=O)N[C@@H]1CCc2c(c3cc(C(=O)O)ccc3n2Cc2cccc(F)c2)C1 [Example 188] | – | – | – | 82.4 | 794 | 952 |
| CCNc1ccccc1Cn1c2c(c3cc(C#N)ccc31)CC(NC(=O)C(C)C)CC2 (stereo not drawn) [Example 112, N-[6-Cyano-9-(2-ethylamino-benzyl)-2,3,4,9-tetrahydro-1H-carbazol-3-yl]-isobutyramide] | 27.2 | 101 | 12.7 | – | – | – |
| CCC(=O)NC1CCc2c(c3cc(OC)ccc3n2Cc2ccccc2)C1 (stereo not drawn) [Example 66, N-(9-Benzyl-6-methoxy-2,3,4,9-tetrahydro-1H-carbazol-3-yl)-propionamide] | – | – | – | 79.8 | 19.2 | 6.9 |
| CC(C)C(=O)NC1CCc2c(c3cc(C#N)ccc3n2Cc2cncs2)C1 (stereo not drawn) [Example 159, N-(6-Cyano-9-thiazol-5-ylmethyl-2,3,4,9-tetrahydro-1H-carbazol-3-yl)-isobutyramide] | 35.8 | 80.9 | 34.4 | – | – | – |
| CCCOc1ccc2c(c1)c1c(n2Cc2cccc(F)c2)CCC(NC(=O)C(C)C)C1 (stereo not drawn) [Example 95, N-[9-(3-Fluoro-benzyl)-6-propoxy-2,3,4,9-tetrahydro-1H-carbazol-3-yl]-isobutyramide] | 18.3 | 79.6 | 12.4 | – | – | – |
